Marks after values point to notes of the source that are not given here. Each block holds one compound with its values, some of them ahead of it.
Experiments:
OneTaq polymerase = test: PCR-based screen and amplification of DNA containing unnatural base pairs, OneTaq (Example 1); assay type: biochemical; conditions: for Amplification: -^a = no amplification was detected
Protocol: (§1) The triphosphates of the 6 group were prepared from the previously reported nucleosides (Kubelka, T., Slavetinska, L., Eigner, V. and Hocek, M. Synthesis of 2,6-disubstituted pyridin-3-yl C-2′-deoxyribonucleosides through chemoselective transformations of bromo-chloropyridine C-nucleosides. Org. Biomol. Chem., 11, 4702-4718) according to Ludwig, J. and Eckstein, F. Rapid and efficient synthesis of nucleoside 5′-0-(1-thiotriphosphates), 5′-triphosphates and 2′,3′-cyclophosphorothioates using 2-chloro-4H-1,3,2-benzodioxaphosphorin-4-one. J. Org. Chem., 54, 631-635. The purity of all other triphosphates was confirmed by MALDI-TOF and UV-VIS. Taq and OneTaq DNA polymerases were purchased from New England Biolabs (Ipswich, Mass.). A mixture of dNTPs was purchased from Fermentas (Glen Burnie, Md.). SYBR Green I Nucleic Acid Gel Stain (10,000×) was purchased from Life Technologies (Carlsbad, Calif.). The synthesis of the DNA templates, D8 (Malyshev, D. A., Dhami, K., Quach, H. T., Lavergne, T., Ordoukhanian, P., Torkamani, A. and Romesberg, F. E. Efficient and sequence-independent replication of DNA containing a third base pair establishes a functional six-letter genetic alphabet. Proc. Natl. Acad. Sci. USA, 109, 12005-12010), used for screening rounds 1-5, and D6 (Malyshev, D. A., Seo, Y. J., Ordoukhanian, P. and Romesberg, F. E. PCR with an expanded genetic alphabet. J. Am. Chem. Soc., 131, 14620-14621), used for all other amplifications, was described previously. Sanger sequencing was carried out as described previously (Malyshev, D. A., Dhami, K., Quach, H. T., Lavergne, T., Ordoukhanian, P., Torkamani, A. and Romesberg, F. E. Efficient and sequence-independent replication of DNA containing a third base pair establishes a functional six-letter genetic alphabet. Proc. Natl. Acad. Sci. USA, 109, 12005-12010). Raw Sanger sequencing traces were used to determine the percent retention of the unnatural base pairs, which was converted to fidelity per doubling, as described (Malyshev, D. A., Dhami, K., Quach, H. T., Lavergne, T., Ordoukhanian, P., Torkamani, A. and Romesberg, F. E. Efficient and sequence-independent replication of DNA containing a third base pair establishes a functional six-letter genetic alphabet. Proc. Natl. Acad. Sci. USA, 109, 12005-12010; Malyshev, D. A., Seo, Y. J., Ordoukhanian, P. and Romesberg, F. E. PCR with an expanded genetic alphabet. J. Am. Chem. Soc., 131, 14620-14621).
(§2) All PCR amplifications were performed in a CFX Connect Real-Time PCR Detection System (Bio-Rad), in a total volume of 25 μL using the following conditions: 1× OneTaq reaction buffer, 0.5× Sybr Green I, MgSO4 adjusted to 4.0 mM, 0.2 mM of each dNTP, 50 μM of each unnatural triphosphate, […] of Primer1 and Primer2 (See Table 2), and 0.02 U/μl of the DNA polymerase. Other conditions specific for each round of screening are described in Table 3. Amplified products were purified using DNA Clean and Concentrator-5 spin columns from Zymo Research (Irvine, Calif.). After purification, the PCR products were sequenced on a 3730 DNA Analyzer (Applied Biosystems) to determine the retention of the unnatural base pair as described below. Fidelity was characterized from unnatural base pair (UBP) retention as determined by sequencing with Primer1 on a 3730 DNA Analyzer (Applied Biosystems).
(§3) Specific PCR assay conditions. PCR with the most promising UBPs was carried out with the conditions as described in Table 3. PCR products were further purified on […] gels, followed by single band excision and subsequent clean up using the Zymo Research Zymoclean Gel DNA Recovery Kit. After elution with 20 μl of water, the DNA concentration was measured using fluorescent dye binding (Quant-iT dsDNA HS Assay kit, Life Technologies), and purified amplicons were sequenced in triplicate with both Primer1 and Primer2 to determine UBP retention and thus amplification fidelity. […]

Taq polymerase = molecular target: T1, Taq polymerase (Thermus aquaticus, UniProt P19821); test: PCR-based screen and amplification of DNA containing unnatural base pairs, Taq (Example 1); assay type: biochemical
T1 construct: purchased New England Biolabs (Ipswich, Mass.)
Protocol: as §1, §2, §3

[1] = OneTaq, 1 min Extension, 52 cycles, D6 template
[2] = Taq, 10 s Extension, 52 cycles, D6 template
[3] = OneTaq, 16 cycles, 1 min extension
[4] = ^a 100 pg D8 template, 16 cycles, Taq polymerase, 68° C. for 60 s

T1 sequence (P19821 whole entry): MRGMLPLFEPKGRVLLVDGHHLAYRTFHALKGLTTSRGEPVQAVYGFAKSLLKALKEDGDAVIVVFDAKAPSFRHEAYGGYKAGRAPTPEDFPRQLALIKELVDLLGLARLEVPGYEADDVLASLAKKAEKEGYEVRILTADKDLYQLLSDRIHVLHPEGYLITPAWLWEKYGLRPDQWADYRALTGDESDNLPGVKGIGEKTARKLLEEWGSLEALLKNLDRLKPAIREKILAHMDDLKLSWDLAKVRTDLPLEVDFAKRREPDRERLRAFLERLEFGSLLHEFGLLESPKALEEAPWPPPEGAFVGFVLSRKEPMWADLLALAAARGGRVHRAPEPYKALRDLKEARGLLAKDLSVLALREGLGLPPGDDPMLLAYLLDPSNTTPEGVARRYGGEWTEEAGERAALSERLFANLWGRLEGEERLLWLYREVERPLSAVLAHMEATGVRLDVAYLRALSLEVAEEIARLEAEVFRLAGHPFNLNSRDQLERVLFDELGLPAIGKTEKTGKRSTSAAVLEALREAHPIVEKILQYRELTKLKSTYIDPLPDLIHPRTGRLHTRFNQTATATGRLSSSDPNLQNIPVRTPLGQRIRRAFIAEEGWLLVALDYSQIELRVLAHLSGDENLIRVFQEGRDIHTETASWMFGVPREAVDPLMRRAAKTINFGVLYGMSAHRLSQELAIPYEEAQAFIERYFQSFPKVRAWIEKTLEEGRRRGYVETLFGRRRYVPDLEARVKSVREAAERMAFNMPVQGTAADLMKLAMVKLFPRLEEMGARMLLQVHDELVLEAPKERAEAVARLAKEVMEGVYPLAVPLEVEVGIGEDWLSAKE

Compound: COc1cc(I)ccc1[C@H]1C[C@H](O)[C@@H](COP(=O)(O)OP(=O)(O)OP(=O)(O)O)O1.O=P(O)(O)OP(=O)(O)OP(=O)(O)OC[C@H]1O[C@@H](n2cc(F)c3ccsc3c2=S)C[C@@H]1O [FTPT3-IMO]
Amplification, ×10^12 (OneTaq polymerase; [1]): 7.1 ×10^12
Fidelity per Doubling, % (OneTaq polymerase; [1]): 99.38 ± 0.05%
Retention, % (OneTaq polymerase; [1]): 76.8 ± 1.6%
Amplification, ×10^12 (Taq polymerase; [2]): 5.6 ×10^12
Fidelity per Doubling, % (Taq polymerase; [2]): 99.54 ± 0.13%
Retention, % (Taq polymerase; [2]): 82 ± 5%

Fidelity, % (OneTaq polymerase; [3]): 98.35 ± 0.14%
Retention, % (OneTaq polymerase; [3]): 85.20 ± 1.12%
Amplification (OneTaq polymerase; [3]): 780
Retention, % (OneTaq polymerase; OneTaq, 16 cycles, 1 min extension, listed as dTPT3-dTOK576): 85%
Compound: CSc1ccc(C2CC(O)C(CO)O2)c(SC)n1.OCC1OC(n2ccc3ccsc3c2=S)CC1O (stereo not drawn) [TPT3-TOK576]

Compound: CSc1nc(C)ccc1[C@H]1C[C@H](O)[C@@H](COP(=O)(O)OP(=O)(O)OP(=O)(O)O)O1.O=P(O)(O)OP(=O)(O)OP(=O)(O)OC[C@H]1O[C@@H](n2ccc3ccsc3c2=S)C[C@@H]1O [TPT3-TOK588]
Fidelity, % (OneTaq polymerase; [3]): 94.99 ± 1.13%
Retention, % (OneTaq polymerase; [3]): 61.98 ± 7.09%
Amplification (OneTaq polymerase; [3]): 666
Retention, % (OneTaq polymerase; OneTaq, 16 cycles, 1 min extension, listed as dTPT3-dTOK588): 62%

Compound: COc1cc(I)c(F)cc1[C@H]1C[C@H](O)[C@@H](COP(=O)(O)OP(=O)(O)OP(=O)(O)O)O1.O=P(O)(O)OP(=O)(O)OP(=O)(O)OC[C@H]1O[C@@H](n2ccc3ccsc3c2=S)C[C@@H]1O [TPT3-FIMO]
Amplification, ×10^12 (OneTaq polymerase; [1]): 8.7 ×10^12
Fidelity per Doubling, % (OneTaq polymerase; [1]): 99.61 ± 0.03%
Retention, % (OneTaq polymerase; [1]): 84.7 ± 1.1%
Amplification, ×10^12 (Taq polymerase; [2]): 8.5 ×10^12
Fidelity per Doubling, % (Taq polymerase; [2]): 99.60 ± 0.09%
Retention, % (Taq polymerase; [2]): 84 ± 3%

Compound: COc1cc(C)ccc1[C@H]1C[C@H](O)[C@@H](COP(=O)(O)OP(=O)(O)OP(=O)(O)O)O1.O=P(O)(O)OP(=O)(O)OP(=O)(O)OC[C@H]1O[C@@H](n2ccc3ccsc3c2=S)C[C@@H]1O [TPT3-MMO2]
Fidelity, % (OneTaq polymerase; [3]): 99.06 ± 0.40%
Retention, % (OneTaq polymerase; [3]): 90.95 ± 3.63%
Amplification (OneTaq polymerase; [3]): 1096

Compound: C#Cc1cc(OC)c([C@H]2C[C@H](O)[C@@H](COP(=O)(O)OP(=O)(O)OP(=O)(O)O)O2)cc1F.O=P(O)(O)OP(=O)(O)OP(=O)(O)OC[C@H]1O[C@@H](n2ccc3ncccc3c2=S)C[C@@H]1O [SNICS-FEMO]
Retention, % (OneTaq polymerase; ^b 10 pg D6 template, 24 cycles, OneTaq polymerase, 68° C. for 10 s): 95^b %

Compound: COc1cc(C#N)ccc1[C@H]1C[C@H](O)[C@@H](COP(=O)(O)OP(=O)(O)OP(=O)(O)O)O1.O=P(O)(O)OP(=O)(O)OP(=O)(O)OC[C@H]1O[C@@H](n2cc(F)c3ccsc3c2=S)C[C@@H]1O [FTPT3-CNMO]
Retention, % (Taq polymerase; [4]): 94^a %

Compound: Cc1ccc([C@H]2C[C@H](O)[C@@H](COP(=O)(O)OP(=O)(O)OP(=O)(O)O)O2)c(N)n1.O=P(O)(O)OP(=O)(O)OP(=O)(O)OC[C@H]1O[C@@H](n2ccc3ccsc3c2=S)C[C@@H]1O [TPT3-TOK586]
Fidelity, % (OneTaq polymerase; [3]): <85 ^b %
Retention, % (OneTaq polymerase; [3]): <50 ^b %
Amplification (OneTaq polymerase; [3]): 948
Retention, % (OneTaq polymerase; OneTaq, 16 cycles, 1 min extension, listed as dTPT3-dTOK586): poorly replicated

Compound: COc1cc2ccccc2cc1[C@H]1C[C@H](O)[C@@H](COP(=O)(O)OP(=O)(O)OP(=O)(O)O)O1.O=P(O)(O)OP(=O)(O)OP(=O)(O)OC[C@H]1O[C@@H](n2ccc3ccccc3c2=S)C[C@@H]1O [SICS-NaM]
Retention, % (Taq polymerase; [4]): 99^a %

Compound: COc1cc(I)c(F)cc1[C@H]1C[C@H](O)[C@@H](COP(=O)(O)OP(=O)(O)OP(=O)(O)O)O1.O=P(O)(O)OP(=O)(O)OP(=O)(O)OC[C@H]1O[C@@H](n2cc(F)c3ccsc3c2=S)C[C@@H]1O [FTPT3-FIMO]
Amplification, ×10^12 (OneTaq polymerase; [1]): 8.2 ×10^12
Fidelity per Doubling, % (OneTaq polymerase; [1]): 99.65 ± 0.08%
Retention, % (OneTaq polymerase; [1]): 86 ± 3%
Amplification, ×10^12 (Taq polymerase; [2]): 4.8 ×10^12
Fidelity per Doubling, % (Taq polymerase; [2]): 99.60 ± 0.09%
Retention, % (Taq polymerase; [2]): 84 ± 3%

Reference: patent US11634451B2, “Method for the site-specific enzymatic labelling of nucleic acids in vitro by incorporation of unnatural nucleotides” (The Scripps Research Institute, priority 2013, dated 2023)
